Among the data in US11939314B2, “Quinolin-2-one derivatives” (MERCK PATENT GMBH, priority 2016, dated 2024) are IC50 values, retold here.

The target in one experiment is T1, c-Kit(V654A) (Homo sapiens, UniProt P10721, V654A).
T1 construct: amino acids 544-end containing the V654A mutation; GST (N)
Nature of the experiment: c-Kit(V654A) assay. The conditions noted are these: recombinant human c-Kit aa 544-end, 200 μM ATP, 1.4E-06 means 1.4×10^−6, read-out: Inhibition (IC50) of c-KIT (V654A). It is filed as biochemical. An outline of the steps:
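Radiometric filter-binding read-out: substrate 33P incorporation counted by scintillation after P30 filtermat washes in 75 mM phosphoric acid and methanol. Enzyme: N-GST recombinant human c-Kit aa 544-end carrying V654A.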

For another experiment, the target named is T2, PDGFRalpha(V561D) (Homo sapiens, UniProt P16234, V561D).
T2 construct: recombinant human PDGFRalpha, amino acids 550end containing the V561 D mutation; 6His (N)
Nature of the experiment: PDGFRalpha(V561D) assay. It is filed as biochemical. The conditions noted are these: recombinant human PDGFRalpha aa 550-end, 200 μM ATP, 1.4E-06 means 1.4×10^−6, read-out: Inhibition (IC50) of PDGFRα (V561D). The procedure, abridged:
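Radiometric filter-binding assay: substrate phosphorylation by recombinant N-His-tagged human PDGFRα 550-end V561D was quenched with 3% phosphoric acid after 40 min at room temperature, then counted.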

T2 sequence (P16234 550-1089 V561D): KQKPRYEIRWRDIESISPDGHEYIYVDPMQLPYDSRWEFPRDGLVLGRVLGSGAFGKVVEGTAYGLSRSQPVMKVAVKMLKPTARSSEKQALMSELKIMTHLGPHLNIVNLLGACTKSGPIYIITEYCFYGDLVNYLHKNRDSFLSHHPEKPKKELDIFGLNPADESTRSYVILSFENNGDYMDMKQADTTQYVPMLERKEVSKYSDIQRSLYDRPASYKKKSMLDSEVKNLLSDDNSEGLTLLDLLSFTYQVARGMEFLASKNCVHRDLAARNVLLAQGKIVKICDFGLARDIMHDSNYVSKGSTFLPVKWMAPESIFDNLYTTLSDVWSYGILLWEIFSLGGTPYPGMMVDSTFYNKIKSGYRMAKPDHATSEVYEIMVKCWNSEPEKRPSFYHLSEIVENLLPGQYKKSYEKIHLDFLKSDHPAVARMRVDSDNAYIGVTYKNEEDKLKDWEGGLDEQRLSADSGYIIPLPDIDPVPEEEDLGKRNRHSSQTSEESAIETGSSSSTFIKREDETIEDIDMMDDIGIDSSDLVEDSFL
T1 sequence (P10721 544-976 V654A): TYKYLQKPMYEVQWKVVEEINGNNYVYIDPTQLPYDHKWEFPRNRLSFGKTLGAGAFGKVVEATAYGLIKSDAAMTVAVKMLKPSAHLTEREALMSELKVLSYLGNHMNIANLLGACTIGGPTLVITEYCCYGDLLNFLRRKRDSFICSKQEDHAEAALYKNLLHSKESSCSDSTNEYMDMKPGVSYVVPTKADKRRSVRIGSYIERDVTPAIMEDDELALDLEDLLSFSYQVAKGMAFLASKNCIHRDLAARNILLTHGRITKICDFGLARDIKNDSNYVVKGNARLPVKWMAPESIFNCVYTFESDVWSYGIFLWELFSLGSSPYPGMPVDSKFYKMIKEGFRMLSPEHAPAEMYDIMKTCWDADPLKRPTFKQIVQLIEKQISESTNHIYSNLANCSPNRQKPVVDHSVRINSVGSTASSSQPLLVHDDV

In general, IC50 refers to the concentration that inhibits the measured activity by half. Regarding `CO[C@H]1CCCN(C(=O)c2ccc(-n3cc(-c4cc5cc(F)ccc5[nH]c4=O)nn3)cc2)C1` [A195, 6-fluoro-3-{1-[4-((S)-3-methoxy-piperidine-1-carbonyl)-phenyl]-1H-[1,2,3]triazol-4-yl}-1H-quinolin-2-one], the IC50 on c-Kit(V654A) was 68 nM; at PDGFRalpha(V561D), 93 nM.

As for `CO[C@@H]1C[C@H](CO)N(C(=O)c2ccc(-n3cc(-c4cc5cc(F)ccc5[nH]c4=O)cn3)cc2)C1` [A302, 6-fluoro-3-{1-[4-((2R,4R)-2-hydroxymethyl-4-methoxy-pyrrolidine-1-carbonyl)-phenyl]-1H-pyrazol-4-yl}-1H-quinolin-2-one], the IC50 is 31 nM on c-Kit(V654A) and 1.2 nM on PDGFRalpha(V561D).

Take `CN(C)C[C@H]1CCN(C(=O)c2ccc(-n3cc(-c4cc5cc(F)c(F)cc5[nH]c4=O)nn3)cc2)C1` [A335, 3-{1-[4-((R)-3-dimethylaminomethyl-pyrrolidine-1-carbonyl)-phenyl]-1H-[1,2,3]triazol-4-yl}-6,7-difluoro-1H-quinolin-2-one]: the IC50 stood at 170 nM on c-Kit(V654A) and 680 nM at PDGFRalpha(V561D).

In the case of `CO[C@H]1CCCN(C(=O)c2ccc(-n3cc(-c4cc5cc(F)c(F)cc5[nH]c4=O)nn3)cc2)C1` [A193, 6,7-difluoro-3-{1-[4-((S)-3-methoxy-piperidine-1-carbonyl)-phenyl]-1H-[1,2,3]triazol-4-yl}-1H-quinolin-2-one], the IC50 at c-Kit(V654A) turned out to be 230 nM; at PDGFRalpha(V561D), 200 nM.

In the case of `CN(C)[C@@H]1CCCN(C(=O)c2ccc(-n3cc(-c4cc5cc(F)c(F)cc5[nH]c4=O)nn3)cc2)C1` [A328, 3-{1-[4-((R)-3-dimethylamino-piperidine-1-carbonyl)-phenyl]-1H-[1,2,3]triazol-4-yl}-6,7-difluoro-1H-quinolin-2-one], the results for the IC50 on c-Kit(V654A) and at PDGFRalpha(V561D) were 40 nM and 97 nM, respectively.

For `O=C(O)c1ccc(-n2cc(-c3cc4cccnc4[nH]c3=O)nn2)cc1` [A77, 4-[4-(2-Oxo-1,2-dihydro-[1,8]naphthyridin-3-yl)-[1,2,3]triazol-1-yl]-benzoic acid], the IC50 on c-Kit(V654A) came to 470 nM; at PDGFRalpha(V561D), 110 nM.

On to `COCCOC[C@H]1CCN(C(=O)c2ccc(-n3cc(-c4cc5cc(F)ccc5[nH]c4=O)nn3)cc2)C1` [A236, 6-fluoro-3-(1-{4-[(S)-3-(2-methoxy-ethoxymethyl)-pyrrolidine-1-carbonyl]-phenyl}-1H-[1,2,3]triazol-4-yl)-1H-quinolin-2-one], for which the IC50 on c-Kit(V654A) came to 53 nM; on PDGFRalpha(V561D), 560 nM.

As to `COCCO[C@@H]1CCN(C(=O)c2ccc(-n3cc(-c4cc5cc(F)ccc5[nH]c4=O)nn3)cc2)C1` [A252, 6-fluoro-3-(1-{4-[(R)-3-(2-methoxy-ethoxy)-pyrrolidine-1-carbonyl]-phenyl}-1H-[1,2,3]triazol-4-yl)-1H-quinolin-2-one], the concentration for half-maximal inhibition (IC50) on c-Kit(V654A) was 98 nM; at PDGFRalpha(V561D) it was 93 nM.

Take `Cc1ccc2cc(-c3cn(-c4ccc(C(=O)N5CCOCC5)cc4)nn3)c(=O)[nH]c2n1` [A30, 7-methyl-3-{1-[4-(morpholine-4-carbonyl)-phenyl]-1H-[1,2,3]triazol-4-yl}-1H-[1,8]naphthyridin-2-one]: the half-inhibitory concentration (IC50) is 2200 nM on c-Kit(V654A) and 150 nM on PDGFRalpha(V561D).

On to `O=C(c1ccc(-n2cc(-c3cc4cc(F)ccc4[nH]c3=O)nn2)cc1)N1CCCC12COC2` [A234, 6-fluoro-3-{1-[4-(2-oxa-5-aza-spiro[3.4]octane-5-carbonyl)-phenyl]-1H-[1,2,3]triazol-4-yl}-1H-quinolin-2-one], for which the figures for the half-maximal inhibitory concentration (IC50) on c-Kit(V654A) and at PDGFRalpha(V561D) were 50 nM and 740 nM, respectively.

Take `O=c1[nH]c2ncc(F)cc2cc1-c1cn(-c2ccc(N3CCCNCC3)cc2)nn1` [A124, 3-[1-(4-[1,4]diazepan-1-yl-phenyl)-1H-[1,2,3]triazol-4-yl]-6-fluoro-1H-[1,8]naphthyridin-2-one]: the IC50 is 66 nM at c-Kit(V654A) and 9 nM on PDGFRalpha(V561D).

As for `O=C(c1ccc(-n2cc(-c3cc4cc(F)ccc4[nH]c3=O)nn2)cc1)N1CCC(OCCN2CCOCC2)C1` (stereo not drawn) [A209, 6-fluoro-3-(1-{4-[3-(2-morpholin-4-yl-ethoxy)-pyrrolidine-1-carbonyl]-phenyl}-1H-[1,2,3]triazol-4-yl)-1H-quinolin-2-one], the IC50 at c-Kit(V654A) amounted to 53 nM; at PDGFRalpha(V561D) it was 580 nM.

For `CC(=O)N1C[C@@H]2[C@H](C1)[C@H]2NC(=O)c1ccc(-n2cc(-c3cc4cc(F)ccc4[nH]c3=O)nn2)cc1` [A240, N-(3-acetyl-3-aza-bicyclo[3.1.0]hex-6-yl)-4-[4-(6-fluoro-2-oxo-1,2-dihydro-quinolin-3-yl)-[1,2,3]triazol-1-yl]-benzamide], the IC50 on c-Kit(V654A) worked out at 130 nM; on PDGFRalpha(V561D) it was 250 nM.

With `CN1CCC(CCOc2ccc(-n3cc(-c4cc5cc(F)c(F)cc5[nH]c4=O)nn3)cc2)CC1` [A166, 6,7-difluoro-3-(1-{4-[2-(1-methyl-piperidin-4-yl)-ethoxy]-phenyl}-1H-[1,2,3]triazol-4-yl)-1H-quinolin-2-one], the IC50 worked out at 8 nM on c-Kit(V654A) and 43 nM on PDGFRalpha(V561D).

For `O=C(Cn1ccc2cc(-n3cc(-c4cc5c(F)cc(F)cc5[nH]c4=O)nn3)ccc21)N1CCNCC1` [A138, 5,7-difluoro-3-{1-[1-(2-oxo-2-piperazin-1-yl-ethyl)-1H-indol-5-yl]-1H-[1,2,3]triazol-4-yl}-1H-quinolin-2-one], the values for the half-inhibitory concentration (IC50) at c-Kit(V654A) and at PDGFRalpha(V561D) were 11 nM and 86 nM, respectively.

Consider `O=C(c1ccc(-n2cc(-c3cc4cccnc4[nH]c3=O)nn2)cc1)N1CCNCC1` [A121, 3-{1-[4-(piperazine-1-carbonyl)-phenyl]-1H-[1,2,3]triazol-4-yl}-1H-[1,8]naphthyridin-2-one], for which the figures for the IC50 on c-Kit(V654A) and on PDGFRalpha(V561D) were 40 nM and 16 nM, respectively.

`NC(=O)[C@H]1CCN(C(=O)c2ccc(-n3cc(-c4cc5cc(F)ccc5[nH]c4=O)nn3)cc2)C1` [A243, (S)-1-{4-[4-(6-fluoro-2-oxo-1,2-dihydro-quinolin-3-yl)-[1,2,3]triazol-1-yl]-benzoyl}-pyrrolidine-3-carboxylic acid amide]: the IC50 at c-Kit(V654A) was 30 nM; at PDGFRalpha(V561D), 14 nM.

For the compound `O=C(c1ccc(-n2cc(-c3cc4ccc(C(F)(F)F)cc4[nH]c3=O)nn2)cc1)N1CCNCC1` [A142, 3-{1-[4-(piperazine-1-carbonyl)-phenyl]-1H-[1,2,3]triazol-4-yl}-7-trifluoromethyl-1H-quinolin-2-one], the figures for the IC50 at c-Kit(V654A) and at PDGFRalpha(V561D) were 280 nM and 2800 nM, respectively.

Regarding `CO[C@H]1CN(C(=O)c2ccc(-n3cc(-c4cc5cc(F)ccc5[nH]c4=O)nn3)cc2)C[C@@H]1OC` [A264, 3-{1-[4-((3S,4S)-3,4-dimethoxy-pyrrolidine-1-carbonyl)-phenyl]-1H-[1,2,3]triazol-4-yl}-6-fluoro-1H-quinolin-2-one], the IC50 on c-Kit(V654A) was found to be 75 nM; at PDGFRalpha(V561D), 1.2 nM.

As to `CN1CCN(C(=O)c2ccc(-n3cc(-c4cc5ccc(F)cc5[nH]c4=O)nn3)cc2)CC1` [A118, 7-fluoro-3-{1-[4-(4-methyl-piperazine-1-carbonyl)-phenyl]-1H-[1,2,3]triazol-4-yl}-1H-quinolin-2-one], the IC50 stood at 16 nM at c-Kit(V654A) and 5 nM on PDGFRalpha(V561D).

In the case of `CN(C)C(=O)c1ccc(-n2cc(-c3cc4ccccc4[nH]c3=O)nn2)cc1` [A4, N,N-dimethyl-4-[4-(2-oxo-1,2-dihydro-quinolin-3-yl)-[1,2,3]triazol-1-yl]-benzamide], the IC50 on c-Kit(V654A) worked out at 34 nM; on PDGFRalpha(V561D), 19 nM.

For `CN1CCC(CCOc2ccc(-n3cc(-c4cc5cc(F)ccc5[nH]c4=O)nn3)cc2)CC1` [A163, 6-fluoro-3-(1-{4-[2-(1-methyl-piperidin-4-yl)-ethoxy]-phenyl}-1H-[1,2,3]triazol-4-yl)-1H-quinolin-2-one], the figures for the IC50 at c-Kit(V654A) and at PDGFRalpha(V561D) were 9.9 nM and 45 nM, respectively.

`CN(C)C[C@@H]1CCN(C(=O)c2ccc(-n3cc(-c4cc5cc(F)ccc5[nH]c4=O)nn3)cc2)C1` [A326, 3-{1-[4-((S)-3-dimethylaminomethyl-pyrrolidine-1-carbonyl)-phenyl]-1H-[1,2,3]triazol-4-yl}-6-fluoro-1H-quinolin-2-one]: the IC50 amounted to 180 nM at c-Kit(V654A) and 940 nM on PDGFRalpha(V561D).

In the case of `CN(C(=O)[C@@H]1CCCO1)c1ccc(-n2cc(-c3cc4cc(F)ccc4[nH]c3=O)nn2)cc1` [A344, (S)-tetrahydro-furan-2-carboxylic acid {4-[4-(6-fluoro-2-oxo-1,2-dihydro-quinolin-3-yl)-[1,2,3]triazol-1-yl]-phenyl}-methyl-amide], the IC50 was determined as 9.7 nM on c-Kit(V654A) and 16 nM at PDGFRalpha(V561D).

For `CCN(CC)CCNC(=O)c1ccc(-n2cc(-c3cc4cc(F)c(Cl)cc4[nH]c3=O)nn2)cc1` [A188, 4-[4-(7-chloro-6-fluoro-2-oxo-1,2-dihydro-quinolin-3-yl)-[1,2,3]triazol-1-yl]-N-(2-diethylamino-ethyl)-benzamide], the results for the IC50 on c-Kit(V654A) and on PDGFRalpha(V561D) were 26 nM and 1600 nM, respectively.

For the compound `CN1CCCN(c2ccc(-n3cc(-c4cc5ccccc5[nH]c4=O)nn3)cc2)CC1` [A69, 3-{1-[4-(4-methyl-[1,4]diazepan-1-yl)-phenyl]-1H-[1,2,3]triazol-4-yl}-1H-quinolin-2-one], the IC50 on c-Kit(V654A) was determined as 14 nM; on PDGFRalpha(V561D) it was 10 nM.

`CN(C)C1CCN(C(=O)c2ccc(-n3cc(-c4cc5cc(F)ccc5[nH]c4=O)nn3)cc2)CC1` [A172, 3-{1-[4-(4-dimethylamino-piperidine-1-carbonyl)-phenyl]-1H-[1,2,3]triazol-4-yl}-6-fluoro-1H-quinolin-2-one]: the IC50 on c-Kit(V654A) was 6.3 nM; at PDGFRalpha(V561D), 25 nM.
